How the values were obtained:
[1] = tested on: KURAMOCHI; assay: drug sensitivity score (DSS2) on cancer cell count; higher = more sensitive; extreme values may be limits of the assay; conditions: 72 h
Summary of the method: (§1)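 Cancer cell counts came from 10× images (4 fields) of fixed cells immunostained for CK8/18 with Hoechst. The ovarian cancer cells had been grown alone or in 1:1 direct co-culture with lung or skin fibroblasts on 384-well plates pre-spotted acoustically with 528 approved and investigational compounds at 5 concentrations, then treated for 72 h. Breeze was used to derive a drug sensitivity score from logistic fits of the data.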

[2] = tested on: OVCAR8; assay: as above; conditions: 72 h
Summary of the method: as §1

[3] = co-cultured fibroblast: BJHTERT
[4] = co-cultured fibroblast: none (monoculture)

Compound | drug sensitivity score [1, 3] | drug sensitivity score ([1]; co-cultured fibroblast: WI38) | drug sensitivity score [1, 4] | drug sensitivity score [2, 3] | drug sensitivity score ([2]; co-cultured fibroblast: WI38) | drug sensitivity score [2, 4]
CC1CCC(n2c3cnccc3c3cnc(Nc4ccc5c(n4)CCN(C(=O)CO)C5)nc32)CC1 (stereo not given) [AMG-925] | 0 DSS | 2.2 DSS | 0 DSS | 0 DSS | 0 DSS | 0 DSS
CN(C)C/C=C/C(=O)Nc1cc2c(Nc3ccc(F)c(Cl)c3)ncnc2cc1O[C@H]1CCOC1 [Afatinib] | 5.3 DSS | 5 DSS | 3.1 DSS | 3.1 DSS | 0 DSS | 2.4 DSS
O=C1CN2Cc3c(ccc(Cl)c3Cl)N=C2N1 [Anagrelide] | 0 DSS | 0 DSS | 0 DSS | 0 DSS | 11.9 DSS | 0 DSS
COc1cc2c(Oc3ccc(NC(=O)C4(C(=O)Nc5ccc(F)cc5)CC4)cc3F)ccnc2cc1OCCCN1CCOCC1 [Foretinib] | 2.7 DSS | 4.3 DSS | 1.7 DSS | 5.7 DSS | 5.6 DSS | 6.1 DSS
C=CCc1cccc(/C=N/NC(=O)CN2CCN(Cc3ccccc3)CC2)c1O [PAC-1] | 2.7 DSS | 3.3 DSS | 4.9 DSS | 7.4 DSS | 1.5 DSS | 4.9 DSS
Nc1cc(F)ccc1NC(=O)/C=C/c1cnn(C/C=C/c2ccccc2)c1 [RGFP966] | 3.9 DSS | 6 DSS | 4 DSS | 1.6 DSS | 0.6 DSS | 4.4 DSS
Cc1nc(Nc2ncc(C(=O)Nc3c(C)cccc3Cl)s2)cc(N2CCN(CCO)CC2)n1 [Dasatinib] | 18.4 DSS | 17 DSS | 20.4 DSS | 13.6 DSS | 21.9 DSS | 21.9 DSS
Cc1cc(C)c(CNC(=O)c2cc(-c3ccc(CN4CCOCC4)cc3)cc3c2cnn3C2CCCC2)c(=O)[nH]1 [EPZ-5687] | 0 DSS | 0 DSS | 0 DSS | 0 DSS | 0 DSS | 2.7 DSS
C[C@@]1(C(=O)Nc2ccc(F)nc2)CCCN1c1nc(Nc2cc(C3CC3)n[nH]2)c2cccn2n1 | 13.3 DSS | 5.5 DSS | 10.8 DSS | 11.6 DSS | 13 DSS | 14 DSS
COC[C@H](NC(=O)c1cnc(C)s1)C(=O)N[C@@H](COC)C(=O)N[C@@H](Cc1ccccc1)C(=O)[C@@]1(C)CO1 [Oprozomib] | 15.7 DSS | 15.1 DSS | 12.6 DSS | 17.7 DSS | 12.7 DSS | 10.8 DSS
FC(F)c1nc2ccccc2n1-c1nc(N2CCOCC2)nc(N2CCOCC2)n1 [ZSTK474] | 15 DSS | 12.7 DSS | 10.9 DSS | 5.3 DSS | 0 DSS | 9.8 DSS
CNC(=O)[C@@H](NC(=O)[C@H](CC(C)C)[C@H](O)C(=O)NO)C(C)(C)C [Marimastat] | 0 DSS | 0 DSS | 0 DSS | 0.2 DSS | 1.4 DSS | 0.7 DSS
Cc1cnc(-c2ccccc2C(C)C)nc1NCc1ccc(-n2ccnn2)cc1 [ML323] | 0 DSS | 1.3 DSS | 1.9 DSS | 2.9 DSS | 0 DSS | 3.8 DSS
C=CC(=O)N1CCC(Oc2cc3c(Nc4ccc(Cl)c(Cl)c4F)ncnc3cc2OC)CC1 [Poziotinib] | 4.4 DSS | 7.9 DSS | 3 DSS | 4 DSS | 0.2 DSS | 0.3 DSS
CC(=O)c1cnc2ccc(-c3cc(Cl)c(O)c(Cl)c3)nc2c1N[C@H]1CC[C@H](CN(C)C)CC1 [OTS167] | 14.9 DSS | 13.5 DSS | 11.7 DSS | 20.6 DSS | 16.1 DSS | 19.2 DSS
CCc1cnn2c(NCc3ccc[n+]([O-])c3)cc(N3CCCC[C@H]3CCO)nc12 [Dinaciclib] | 17.2 DSS | 23.9 DSS | 23 DSS | 26.4 DSS | 17.1 DSS | 23.1 DSS
CCCC(CCC)C(=O)O [Valproic acid] | 0 DSS | 0 DSS | 0 DSS | 0 DSS | 0 DSS | 0 DSS
CC(C)N(C[C@H]1O[C@@H](n2cnc3c(N)ncnc32)[C@H](O)[C@@H]1O)[C@H]1C[C@@H](CCc2nc3cc(C(C)(C)C)ccc3[nH]2)C1 [Pinometostat] | 0 DSS | 0 DSS | 0 DSS | 0 DSS | 0 DSS | 0 DSS
CN(C)CC#Cc1ccc(OCCCc2sc(N3CCc4cccc(C(=O)Nc5nc6ccccc6s5)c4C3)nc2C(=O)O)c(F)c1 | 4.1 DSS | 6.1 DSS | 6.9 DSS | 4.3 DSS | 0 DSS | 0.7 DSS
CN1CCN(c2ccc3nc(-c4c(N)c5c(F)cccc5[nH]c4=O)[nH]c3c2)CC1 [Dovitinib] | 0 DSS | 0 DSS | 0 DSS | 0.5 DSS | 0 DSS | 0.3 DSS

— the supplement of paper PMC12420376
